In ChEMBL document CHEMBL1123322, “Muscarinic ganglionic stimulants: conformationally restrained analogues related to [4-[[N-(3-chlorophenyl)carbamoyl]oxy]-2-butynyl]trimethylammonium chloride” (1986):
Active and inactive are the calls of the source. The rule behind the calls is not given here.

How the values were obtained:
Format in all cases: functional
[1] = target: T1, Muscarinic acetylcholine receptor M1 (Rattus norvegicus) (UniProt P08482); assay: Muscarinic M1 receptor ganglion-stimulating activity as pressor responses in pithed rats; Inactive
T1 sequence (whole entry): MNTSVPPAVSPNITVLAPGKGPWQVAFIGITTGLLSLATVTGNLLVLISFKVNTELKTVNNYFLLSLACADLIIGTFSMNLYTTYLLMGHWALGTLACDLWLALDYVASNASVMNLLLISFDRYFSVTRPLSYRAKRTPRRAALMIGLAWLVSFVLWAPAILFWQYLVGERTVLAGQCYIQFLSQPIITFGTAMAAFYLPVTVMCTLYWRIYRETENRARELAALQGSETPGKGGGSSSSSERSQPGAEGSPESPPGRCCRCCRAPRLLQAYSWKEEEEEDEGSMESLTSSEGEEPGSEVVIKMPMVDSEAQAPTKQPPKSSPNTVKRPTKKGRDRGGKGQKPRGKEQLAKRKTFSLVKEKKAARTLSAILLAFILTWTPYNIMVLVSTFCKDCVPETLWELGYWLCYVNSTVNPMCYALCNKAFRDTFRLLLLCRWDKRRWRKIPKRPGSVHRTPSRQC

Rattus norvegicus [2] = organism: Rattus norvegicus; assay: Compound was tested for the production of depressor effects in rat
Rattus norvegicus [3] = organism: Rattus norvegicus; assay: Compound was tested for the production of […] sensitive pressor response; Range 20-30 mmHg
Rattus norvegicus [4] = organism: Rattus norvegicus; assay: Compound was tested for the production of piperizine sensitive pressor response

SMILES: CN1CCC=C(COC(=O)Nc2cccc(Cl)c2)C1
- Activity [1]: inactive
- Activity (Rattus norvegicus [2]): >2 µM/kg

SMILES: Cc1cccc(NC(=O)OCC2=CCN(C)CC2)c1
- Activity [1]: inactive
- Activity (Rattus norvegicus [2]): >2 µM/kg

SMILES: C[N+]1(C)CC=C(COC(=O)Nc2cccc(Cl)c2)C1
- Activity (Rattus norvegicus [2]): 3 µM/kg

SMILES: CN1CCC=C(COC(=O)Nc2ccc(Cl)cc2)C1
- Activity [1]: inactive
- Activity (Rattus norvegicus [2]): >2 µM/kg

SMILES: CN1CCC=C(COC(=O)Nc2ccccc2Cl)C1
- Activity [1]: inactive
- Activity (Rattus norvegicus [2]): >2 µM/kg

SMILES: C[N+]1(C)CCC(COC(=O)Nc2cccc(Cl)c2)CC1
- Mean arterial blood pressure (Rattus norvegicus [3]): 20 mmHg

SMILES: C[N+]1(C)CC=C(COC(=O)Nc2cccc(Cl)c2)CC1.Cc1ccc(S(=O)(=O)[O-])cc1
- Activity [1]: inactive
- Activity (Rattus norvegicus [2]): >2 µM/kg
- Activity (Rattus norvegicus [4]): 0.1 µM/kg

SMILES: Cc1cccc(NC(=O)OCC2C=CCN(C)C2)c1 (stereo not given)
- Activity [1]: inactive
- Activity (Rattus norvegicus [2]): >2 µM/kg

SMILES: CN1CC=C(COC(=O)Nc2cccc(Cl)c2)CC1
- Activity [1]: inactive
- Activity (Rattus norvegicus [2]): >2 µM/kg

SMILES: C[N+]1(C)CC=C(COC(=O)Nc2ccc(Cl)cc2)CC1.[Br-]
- Activity (Rattus norvegicus [4]): 0.1 µM/kg

SMILES: CN1CC=C(COC(=O)Nc2ccc(Cl)cc2)CC1
- Activity [1]: inactive
- Activity (Rattus norvegicus [2]): >2 µM/kg

SMILES: CN1CC=C(COC(=O)Nc2cccc(Cl)c2)C1
- Mean arterial blood pressure (Rattus norvegicus [3]): 20 mmHg

SMILES: CN1CCC(COC(=O)Nc2cccc(Cl)c2)CC1
- Activity (Rattus norvegicus [2]): 0.1 µM/kg

SMILES: C[N+]1(C)CCC=C(COC(=O)Nc2cccc(Cl)c2)C1.[I-]
- Activity [1]: inactive
- Activity (Rattus norvegicus [2]): >2 µM/kg

SMILES: C[N+]1(C)CCC=C(COC(=O)Nc2ccc(Cl)cc2)C1.[I-]
- Activity (Rattus norvegicus [2]): 0.1 µM/kg
